Experimental data: the CheMixHub drug solubility set

Assay: xn = mol fraction of the nth substance listed, in the solute-free solvent

c1ccc2c(c1)CCc1ccccc1N2 + CCO + O
solubility (g/100 g solution)
Settings | 283.15 K | 288.15 K | 293.15 K | 298.15 K | 303.15 K | 308.15 K | 313.15 K | 318.15 K | 323.15 K | 328.15 K
x2 = 0.04179 | 0.0221 | 0.0315 | 0.0433 | 0.0609 | 0.0803 | 0.109 | 0.143 | 0.188 | 0.245 | 0.315
x2 = 0.08913 | 0.114 | 0.158 | 0.211 | 0.288 | 0.371 | 0.489 | 0.626 | 0.801 | 1.02 | 1.28
x2 = 0.1443 | 0.214 | 0.292 | 0.388 | 0.52 | 0.666 | 0.866 | 1.1 | 1.39 | 1.75 | 2.17
x2 = 0.207 | 0.24 | 0.326 | 0.432 | 0.576 | 0.738 | 0.954 | 1.21 | 1.53 | 1.91 | 2.38
x2 = 0.2814 | 0.229 | 0.311 | 0.414 | 0.548 | 0.706 | 0.909 | 1.15 | 1.46 | 1.82 | 2.27
x2 = 0.3697 | 0.231 | 0.313 | 0.417 | 0.55 | 0.71 | 0.909 | 1.15 | 1.46 | 1.82 | 2.26
x2 = 0.4785 | 0.269 | 0.363 | 0.465 | 0.612 | 0.779 | 1 | 1.28 | 1.62 | 2.02 | 2.49
x2 = 0.6105 | 0.316 | 0.423 | 0.561 | 0.728 | 0.94 | 1.19 | 1.5 | 1.89 | 2.33 | 2.88
x2 = 0.7769 | 0.374 | 0.498 | 0.659 | 0.848 | 1.09 | 1.37 | 1.73 | 2.16 | 2.66 | 3.28

CC(C)C(=O)Nc1ccc([N+](=O)[O-])c(C(F)(F)F)c1 + CCOC(C)=O + CC(C)O
solubility (g/100 g solution)
Settings | 278.15 K | 283.15 K | 288.15 K | 293.15 K | 298.15 K | 303.15 K | 308.15 K | 313.15 K | 318.15 K | 323.15 K
x2 = 0.1 | 19.4 | 22.7 | 26.3 | 30.2 | 33.9 | 38.7 | 43.5 | 48.3 | 53 | 57.4
x2 = 0.2 | 28.6 | 30.8 | 33.4 | 36.8 | 40.7 | 44.4 | 48.2 | 51.8 | 55.6 | 59.2
x2 = 0.3 | 30.6 | 34.2 | 38 | 41.5 | 44.9 | 48.2 | 51.3 | 54.9 | 58.2 | 61.5
x2 = 0.4 | 32.7 | 36.3 | 39.5 | 42.8 | 45.9 | 49 | 52.5 | 55.8 | 58.7 | 61.9
x2 = 0.5 | 33.7 | 37.2 | 40.7 | 44 | 46.9 | 49.8 | 52.9 | 56.1 | 59.3 | 62.1
x2 = 0.6 | 34.3 | 38 | 41.5 | 44.7 | 47.6 | 50.4 | 53.3 | 56.4 | 59.4 | 62.5
x2 = 0.7 | 34.5 | 37.8 | 41 | 44.3 | 47.4 | 50.3 | 53.4 | 56.4 | 59.4 | 62.4
x2 = 0.8 | 34.2 | 37.7 | 41.3 | 44.7 | 47.8 | 50.9 | 53.6 | 56.7 | 59.8 | 62.9
x2 = 0.9 | 34.4 | 37.9 | 41.5 | 44.8 | 47.8 | 51.1 | 53.9 | 56.6 | 59.5 | 62.6

Nc1cccc2c1CN(C1CCC(=O)NC1=O)C2=O (stereo unspecified) + CCOC(C)=O + CC(C)O
solubility (g/100 g solution)
Settings | 273.15 K | 278.15 K | 283.15 K | 288.15 K | 293.15 K | 298.15 K | 303.15 K | 308.15 K | 313.15 K | 318.15 K
x2 = 0.1457 | 0.111 | 0.13 | 0.152 | 0.176 | 0.202 | 0.232 | 0.267 | 0.306 | 0.354 | 0.41
x2 = 0.3126 | 0.141 | 0.157 | 0.176 | 0.198 | 0.226 | 0.259 | 0.294 | 0.337 | 0.385 | 0.438
x2 = 0.5057 | 0.179 | 0.201 | 0.223 | 0.247 | 0.274 | 0.301 | 0.334 | 0.37 | 0.41 | 0.454
x2 = 0.7318 | 0.135 | 0.154 | 0.176 | 0.198 | 0.222 | 0.248 | 0.278 | 0.31 | 0.343 | 0.382

CC1=NNC(=O)N(N=Cc2cccnc2)C1 + CN1CCCC1=O + CC(C)O
solubility (g/100 g solution)
Settings | 278.15 K | 283.15 K | 288.15 K | 293.15 K | 298.15 K | 303.15 K | 308.15 K | 313.15 K | 318.15 K
x2 = 0.1316 | 0.161 | 0.188 | 0.221 | 0.258 | 0.3 | 0.347 | 0.402 | 0.461 | 0.529
x2 = 0.2878 | 0.235 | 0.273 | 0.319 | 0.37 | 0.429 | 0.494 | 0.57 | 0.652 | 0.746
x2 = 0.4763 | 0.292 | 0.339 | 0.395 | 0.457 | 0.529 | 0.608 | 0.701 | 0.801 | 0.914
x2 = 0.708 | 0.333 | 0.386 | 0.449 | 0.519 | 0.601 | 0.689 | 0.794 | 0.906 | 1.03

Cc1ccc(-c2cc(C(F)(F)F)nn2-c2ccc(S(N)(=O)=O)cc2)cc1 + CN1CCCC1=O + CCCO
solubility (g/100 g solution)
Settings | x2 = 0.06311 | x2 = 0.1316 | x2 = 0.2062 | x2 = 0.2878 | x2 = 0.3774 | x2 = 0.4763 | x2 = 0.5858 | x2 = 0.708 | x2 = 0.8451
293.15 K | 5.07 | 5.58 | 6.56 | 6.91 | 7.25 | 9.83 | 11.2 | 13.6 | 16.9
298.15 K | 5.96 | 6.26 | 6.96 | 7.72 | 8.23 | 10.3 | 12.2 | 14.6 | 18
303.15 K | 6.68 | 7.1 | 7.85 | 8.74 | 9.16 | 11.9 | 13.4 | 16.3 | 19.6
308.15 K | 7.49 | 8.17 | 9.06 | 9.84 | 10 | 12.7 | 14.5 | 17.3 | 21.1
313.15 K | 8.6 | 9.28 | 9.59 | 10.3 | 10.6 | 13.5 | 15.8 | 19 | 22.6

Cc1ccc(-c2cc(C(F)(F)F)nn2-c2ccc(S(N)(=O)=O)cc2)cc1 + CN1CCCC1=O + CCO
solubility (g/100 g solution)
Settings | x2 = 0.0491 | x2 = 0.1041 | x2 = 0.1661 | x2 = 0.2365 | x2 = 0.3173 | x2 = 0.4108 | x2 = 0.5202 | x2 = 0.6502 | x2 = 0.8071
293.15 K | 8.15 | 8.62 | 9.04 | 9.29 | 9.69 | 10.4 | 12.6 | 14.8 | 17.6
298.15 K | 8.96 | 9.87 | 10.4 | 10.9 | 11.4 | 12.6 | 14.7 | 16.8 | 19.6
303.15 K | 10.2 | 10.9 | 11.3 | 12.3 | 12.9 | 14.4 | 16.7 | 18.8 | 22
308.15 K | 11.1 | 11.8 | 12.6 | 13.8 | 14.3 | 16.4 | 18.8 | 20.9 | 23.9
313.15 K | 12.1 | 12.7 | 13.9 | 15.2 | 15.9 | 19 | 21.3 | 23.5 | 25.9
